ChEMBL document CHEMBL6153163, “Novel 6-Substituted-3-Phenylisoindolin-1-ones as Cbl-B Inhibitors for Treating Cancer” (ACS Med Chem Lett, 2025)

Molecular target: E3 ubiquitin-protein ligase CBL-B (Homo sapiens, UniProt Q13191)
Test: Inhibition of biotin-tagged Cbl-B (unknown origin) pre-incubated with compound for 60 min followed by Lck addition and measured after 90 mins in presence of ATP by TR-FRET based assay

Chain of E3 ubiquitin-protein ligase CBL-B (Q13191 whole entry): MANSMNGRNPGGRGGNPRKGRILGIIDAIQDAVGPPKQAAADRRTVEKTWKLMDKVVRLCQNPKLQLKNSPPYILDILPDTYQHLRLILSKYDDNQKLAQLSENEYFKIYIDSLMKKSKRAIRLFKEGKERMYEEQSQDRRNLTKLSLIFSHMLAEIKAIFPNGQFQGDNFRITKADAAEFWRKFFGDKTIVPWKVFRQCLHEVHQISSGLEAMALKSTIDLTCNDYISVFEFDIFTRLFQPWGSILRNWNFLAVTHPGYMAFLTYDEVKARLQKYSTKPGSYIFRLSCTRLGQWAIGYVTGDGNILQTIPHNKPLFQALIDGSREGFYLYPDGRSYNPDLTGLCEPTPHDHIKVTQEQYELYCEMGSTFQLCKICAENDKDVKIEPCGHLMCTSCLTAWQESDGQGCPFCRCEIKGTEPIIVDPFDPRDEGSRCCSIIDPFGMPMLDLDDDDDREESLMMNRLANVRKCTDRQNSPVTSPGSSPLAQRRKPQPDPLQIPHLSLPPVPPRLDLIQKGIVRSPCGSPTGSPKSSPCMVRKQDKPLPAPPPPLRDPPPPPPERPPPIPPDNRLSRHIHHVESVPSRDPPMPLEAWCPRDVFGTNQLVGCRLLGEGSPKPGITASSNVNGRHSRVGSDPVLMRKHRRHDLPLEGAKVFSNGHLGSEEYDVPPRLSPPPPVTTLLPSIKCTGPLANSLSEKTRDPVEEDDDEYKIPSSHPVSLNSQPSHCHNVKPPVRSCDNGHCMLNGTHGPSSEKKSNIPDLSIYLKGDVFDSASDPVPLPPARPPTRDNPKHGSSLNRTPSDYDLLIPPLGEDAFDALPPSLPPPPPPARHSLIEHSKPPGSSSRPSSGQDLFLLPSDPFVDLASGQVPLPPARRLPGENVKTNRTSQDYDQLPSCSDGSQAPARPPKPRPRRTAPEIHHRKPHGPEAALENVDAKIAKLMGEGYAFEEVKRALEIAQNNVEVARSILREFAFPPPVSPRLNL

Row | IC50 [nM] | SMILES
1 | 4.1 | Cn1cnnc1[C@]1(c2cccc(N3Cc4c(Cl)cc(CNCC5CCC5)cc4C3=O)c2)C[C@H](Cl)C1
2 | 4.2 | C[C@@H](NCc1cc2c(c(C(F)F)c1)CN(c1cccc([C@H](c3nncn3C)C3CC(F)C3)c1)C2=O)C1CCC1 (stereo partly specified)
3 | 4.3 | CC(C)CNCc1cc(Cl)c2c(c1)C(=O)N(c1cccc([C@H](c3nncn3C)[C@H]3C[C@@H](F)C3)c1)C2
4 | 3.6 | Cn1cnnc1[C@]1(c2cccc(N3Cc4c(Cl)cc(CNCC5CCC5)cc4C3=O)c2)C[C@@H](Cl)C1
5 | 4.2 | CC(C)CNCc1cc(Cl)c2c(c1)C(=O)N(c1cccc([C@H](c3nncn3C)[C@H]3C[C@@H](CC#N)C3)c1)C2
6 | 4 | C[C@@H](NCc1cc2c(c(C(F)F)c1)CN(c1cccc([C@]3(c4nncn4C)C[C@H](Cl)C3)c1)C2=O)C1CCC1
